Test results reported in patent US8008298B2, “Pyrrolopyrazine kinase inhibitors” (Roche Palo Alto, priority 2008, dated 2011).

melting point	SMILES
149 to 150 °C	CC(C)Oc1cccc(-c2cnc3[nH]cc(C(=O)C(C)(C)C)c3n2)c1 [Example 138, 1-[2-(3-Isopropoxy-phenyl)-5H-pyrrolo[2,3-b]pyrazin-7-yl]-2,2-dimethyl-propan-1-one]
196 to 198 °C	COC1CN(c2cccc(-c3cnc4[nH]cc(C(=O)C(C)(C)C)c4n3)c2)C1 [Example 111, 1-{2-[3-(3-Methoxy-azetidin-1-yl)-phenyl]-5H-pyrrolo[2,3-b]pyrazin-7-yl}-2,2-dimethyl-propan-1-one]
201.9 to 202.6 °C	COc1cc(-c2cnc3[nH]cc(C(=O)NCC(C)O)c3n2)cc(OC)c1OC (stereo not shown) [Example 22, 2-(3,4,5-Trimethoxy-phenyl)-5H-pyrrolo[2,3-b]pyrazine-7-carboxylic acid (2-hydroxy-propyl)-amide]
267 to 268 °C	COc1cc(-c2cnc3[nH]cc(C(=O)C45CC6CC(CC(C6)C4)C5)c3n2)cc(OC)c1OC [Example 162, Adamantan-1-yl-[2-(3,4,5-trimethoxy-phenyl)-5H-pyrrolo[2,3-b]pyrazin-7-yl]-methanone]
198.4 to 202.7 °C	CC(C)(C)C(=O)c1c[nH]c2ncc(-c3ccc(OCCN4CCOCC4)cc3)nc12 [Example I-40, 2,2-Dimethyl-1-{2-[4-(2-morpholin-4-yl-ethoxy)-phenyl]-5H-pyrrolo[2,3-b]pyrazin-7-yl}-propan-1-one]
212 to 214 °C	COc1cc(-c2cnc3[nH]cc(C(=O)C4(C)CCCCC4)c3n2)cc(N2CCSCC2)c1 [Example I-155, [2-(3-Methoxy-5-thiomorpholin-4-yl-phenyl)-5H-pyrrolo[2,3-b]pyrazin-7-yl]-(1-methyl-cyclohexyl)-methanone]
202 to 203 °C	CC(C)(C)C(=O)c1c[nH]c2ncc(-c3cccc(CCO)c3)nc12 [Example 148, 1-{2-[3-(2-Hydroxy-ethyl)-phenyl]-5H-pyrrolo[2,3-b]pyrazin-7-yl}-2,2-dimethyl-propan-1-one]
170 to 171 °C	CC(C)(C)C(=O)c1c[nH]c2ncc(-c3cccc(CCCO)c3)nc12 [Example 143, 1-{2-[3-(3-Hydroxy-propyl)-phenyl]-5H-pyrrolo[2,3-b]pyrazin-7-yl}-2,2-dimethyl-propan-1-one]
237 to 239 °C	CC1(O)CCN(c2cccc(-c3cnc4[nH]cc(C(=O)C(C)(C)C)c4n3)c2)C1 (stereo not shown) [Example I-417, 1-{2-[3-(3-Hydroxy-3-methyl-pyrrolidin-1-yl)-phenyl]-5H-pyrrolo[2,3-b]pyrazin-7-yl}-2,2-dimethyl-propan-1-one]
224 to 225 °C	COc1cc(-c2cnc3[nH]cc(C(=O)NCC(C)(C)CO)c3n2)cc(OC)c1OC [Example 15, 2-(3,4,5-Trimethoxy-phenyl)-5H-pyrrolo[2,3-b]pyrazine-7-carboxylic acid (3-hydroxy-2,2-dimethyl-propyl)-amide]
278 to 280 °C	CNS(=O)(=O)c1ccc(-c2cnc3[nH]cc(C(=O)C(C)(C)C)c3n2)cc1 [Example 142, 4-[7-(2,2-Dimethyl-propionyl)-5H-pyrrolo[2,3-b]pyrazin-2-yl]-N-methyl-benzenesulfonamide]
207 to 208 °C	COc1ccc(-c2cnc3[nH]cc(C(=O)C(C)(C)C)c3n2)cc1 [Example 98, 1-[2-(4-Methoxy-phenyl)-5H-pyrrolo[2,3-b]pyrazin-7-yl]-2,2-dimethyl-propan-1-one]
195 to 196 °C	CCOc1cccc(-c2cnc3[nH]cc(C(=O)C(C)(C)C)c3n2)c1 [Example 136, 1-[2-(3-Ethoxy-phenyl)-5H-pyrrolo[2,3-b]pyrazin-7-yl]-2,2-dimethyl-propan-1-one]
186 to 187 °C	COc1ccc(F)cc1-c1cnc2[nH]cc(C(=O)CC(C)C)c2n1 [Example I-5, 1-[2-(5-Fluoro-2-methoxy-phenyl)-5H-pyrrolo[2,3-b]pyrazin-7-yl]-3-methyl-butan-1-one]
227 to 228.5 °C	CC(C)(C)C(=O)c1c[nH]c2ncc(-c3cccc(C(=O)NC4CCCC4)c3)nc12 [Example I-136, N-Cyclopentyl-3-[7-(2,2-dimethyl-propionyl)-5H-pyrrolo[2,3-b]pyrazin-2-yl]-benzamide]
242 to 244 °C	COc1cc(-c2cnc3[nH]cc(C(=O)C4(C)CCC(O)CC4)c3n2)cc(OC)c1OC (stereo not shown) [Example 191, (4-Hydroxy-1-methyl-cyclohexyl)-[2-(3,4,5-trimethoxy-phenyl)-5H-pyrrolo[2,3-b]pyrazin-7-yl]-methanone]
191 to 192 °C	COc1cc(-c2cnc3[nH]cc(C(=O)NC4CCCOC4)c3n2)cc(OC)c1OC (stereo not shown) [Example 23, 2-(3,4,5-Trimethoxy-phenyl)-5H-pyrrolo[2,3-b]pyrazine-7-carboxylic acid (tetrahydro-pyran-3-yl)-amide]
152.9 to 154.7 °C	CC(C)(C)C(=O)c1c[nH]c2ncc(-c3cccc(OCCN4CCOCC4)c3)nc12 [Example I-41, 2,2-Dimethyl-1-{2-[3-(2-morpholin-4-yl-ethoxy)-phenyl]-5H-pyrrolo[2,3-b]pyrazin-7-yl}-propan-1-one]

melting point	SMILES
264 to 266 °C	Cc1ccc(-c2cnc3[nH]cc(C(=O)C(C)(C)C)c3n2)cc1NS(=O)(=O)c1ccc(N)cc1 [Example I-416, 4-Amino-N-{5-[7-(2,2-dimethyl-propionyl)-5H-pyrrolo[2,3-b]pyrazin-2-yl]-2-methyl-phenyl}-benzenesulfonamide]
259 to 260 °C	CC(C)(C)C(=O)c1c[nH]c2ncc(-c3cccc(N4CCCC4)c3)nc12 [Example 33, 2,2-dimethyl-1-[2-(3-pyrrolidin-1-yl-phenyl)-5H-pyrrolo[2,3-b]pyrazin-7-yl]-propan-1-one]
199.5 to 200.7 °C	COc1ccccc1-c1cnc2[nH]cc(C(=O)C(C)(C)C)c2n1 [Example I-133, 1-[2-(2-Methoxy-phenyl)-5H-pyrrolo[2,3-b]pyrazin-7-yl]-2,2-dimethyl-propan-1-one]
189 to 190 °C	COc1cc(-c2cnc3[nH]cc(C(=O)C(C)C)c3n2)cc(OC)c1OC [Example 68, 2-Methyl-1-[2-(3,4,5-trimethoxy-phenyl)-5H-pyrrolo[2,3-b]pyrazin-7-yl]-propan-1-one]
206.9 to 207.9 °C	CC1(C(=O)c2c[nH]c3ncc(Br)nc23)CCCC1 [Example 166, (2-Bromo-5H-pyrrolo[2,3-b]pyrazin-7-yl)-(1-methyl-cyclopentyl)-methanone]
245 to 248 °C	CC(C)(C)C(=O)c1c[nH]c2ncc(-c3cccc(N4CCC(O)C4)c3)nc12 (stereo not shown) [Example I-402, 1-{2-[3-(3-Hydroxy-pyrrolidin-1-yl)-phenyl]-5H-pyrrolo[2,3-b]pyrazin-7-yl}-2,2-dimethyl-propan-1-one]
215 to 216 °C	COc1ccc(COc2cccc(-c3cnc4[nH]cc(C(=O)NC(C)C)c4n3)c2)cc1 [Example I-229, 2-[3-(4-Methoxy-benzyloxy)-phenyl]-5H-pyrrolo[2,3-b]pyrazine-7-carboxylic acid isopropylamide]
> 300 °C	Cc1nnc(-c2ccc(-c3cnc4[nH]cc(C(=O)C(C)(C)C)c4n3)cc2)o1 [Example I-357, 2,2-Dimethyl-1-{2-[4-(5-methyl-[1,3,4]oxadiazol-2-yl)-phenyl]-5H-pyrrolo[2,3-b]pyrazin-7-yl}-propan-1-one]
210 to 212 °C	COc1cc(-c2cnc3[nH]cc(C(=O)N4CCCC4)c3n2)cc(OC)c1OC [Example 240, Pyrrolidin-1-yl-[2-(3,4,5-trimethoxy-phenyl)-5H-pyrrolo[2,3-b]pyrazin-7-yl]-methanone]
204 to 206 °C	CN(C)C1CCN(c2cccc(-c3cnc4[nH]cc(C(=O)C(C)(C)C)c4n3)c2)C1 (stereo not shown) [Example 202, 1-{2-[3-(3-Dimethylamino-pyrrolidin-1-yl)-phenyl]-5H-pyrrolo[2,3-b]pyrazin-7-yl}-2,2-dimethyl-propan-1-one]
226 to 227 °C	COc1cc(-c2cnc3[nH]cc(C(=O)Cc4ccccc4)c3n2)cc(OC)c1OC [Example 64, 2-phenyl-1-[2-(3,4,5-trimethoxy-phenyl]-5H-pyrrolo[2,3-b]pyrazin-7-yl]-ethanone]
267 to 268 °C	CC(C)(C)C(=O)c1c[nH]c2ncc(-c3cccc(O)c3)nc12 [Example I-141, 1-[2-(3-Hydroxy-phenyl)-5H-pyrrolo[2,3-b]pyrazin-7-yl]-2,2-dimethyl-propan-1-one]
279 to 280 °C	O=C(c1c[nH]c2ncc(Br)nc12)C12CC3CC(CC(C3)C1)C2 [Example 161, Adamantan-1-yl-(2-bromo-5H-pyrrolo[2,3-b]pyrazin-7-yl)-methanone]
200 to 202 °C	CCNC1CCN(c2cccc(-c3cnc4[nH]cc(C(=O)C(C)(C)C)c4n3)c2)C1 (stereo not shown) [Example 208, 1-{2-[3-(3-Ethylamino-pyrrolidin-1-yl)-phenyl]-5H-pyrrolo[2,3-b]pyrazin-7-yl}-2,2-dimethyl-propan-1-one]
233 to 235 °C	CC1(C(=O)c2c[nH]c3ncc(-c4cccc(N5CCN(S(N)(=O)=O)CC5)c4)nc23)CCCCC1 [Example 183, 4-{3-[7-(1-Methyl-cyclohexanecarbonyl)-5H-pyrrolo[2,3-b]pyrazin-2-yl]-phenyl}-piperazine-1-sulfonic acid amide]
234 to 246 °C	CC(C)(C)C(=O)c1c[nH]c2ncc(-c3ccc(N4CCNCC4)cc3)nc12 [Example I-45, 2,2-Dimethyl-1-[2-(4-piperazin-1-yl-phenyl)-5H-pyrrolo[2,3-b]pyrazin-7-yl]-propan-1-one]
198 to 200 °C	COC(=O)C1(C)CCN(c2cccc(-c3cnc4[nH]cc(C(=O)C(C)(C)C)c4n3)c2)C1 (stereo not shown) [Example 209, 1-{3-[7-(2,2-Dimethyl-propionyl)-5H-pyrrolo[2,3-b]pyrazin-2-yl]-phenyl}-3-methyl-pyrrolidine-3-carboxylic acid methyl ester]
191 to 192 °C	COCc1ccc(-c2cnc3[nH]cc(C(=O)C(C)(C)C)c3n2)cc1 [Example I-132, 1-[2-(4-Methoxymethyl-phenyl)-5H-pyrrolo[2,3-b]pyrazin-7-yl]-2,2-dimethyl-propan-1-one]

SMILES	melting point
CC(C)COc1cccc(-c2cnc3[nH]cc(C(=O)C(C)(C)C)c3n2)c1 [Example 137, 1-[2-(3-Isobutoxy-phenyl)-5H-pyrrolo[2,3-b]pyrazin-7-yl]-2,2-dimethyl-propan-1-one]	177 to 178 °C
